In brackets after ≈: the same amount, converted by molar mass. Where two headings read alike, the source gives them in different places.
Key:
[1] = system: Pseudomonas-derived lipase type XIII; test: Lipase inhibitory activity (1), paranitrophenyl palmitate substrate; assay type: biochemical; conditions: for Inhibitory Ratio: Pseudomonas lipase, pH 7.0, 30° C., 10 minutes
Protocol: The activity of inhibiting lipase derived from Pseudomonas of the ascorbic acid-2-phosphate zinc salt, the ascorbic acid-2-phosphate and zinc salt mixture and the ascorbic acid-2-glucoside and zinc salt mixture of the present invention was examined.
Pseudomonas-derived lipase type XIII (produced by Sigma) was dissolved in 100 mM phosphate buffer (pH: 7.0) to have a final concentration of 43 mU/ml. 2 ml of the resulting solution was poured in a small test tube and thereto, APZ, AP+Zn and AG+Zn prepared as in Examples 1 to 3, APM and AG were added each to have concentrations of 1 mg/ml and 10 mg/ml. The reaction was started by addition of a substrate paranitrophenyl palmitate at a final concentration of 0.14 mg/ml. The reaction was performed at 30° C. for 10 minutes under shaking. After completion of the reaction, the absorbance at a wavelength of 405 nm was measured and the difference from the absorbance of a control test tube where the substrate was not present was used as the activity. The ratio between activity when a sample was present and activity when the sample was not present was calculated as the inhibitory ratio of each sample and the values obtained were compared.

[2] = system: Propionibacterium acnes JCM6425 strain; test: Minimum inhibitory concentration (MIC) against Propionibacterium, turbidity of culture; assay type: cell-based
Protocol: By the measurement of minimum inhibitory concentration (MIC), the ascorbic acid-2-phosphate zinc salt, the ascorbic acid-2-phosphate and zinc salt mixture and the ascorbic acid-2-glucoside and zinc salt mixture of the present invention were determined on their antibacterial action against Propionibacterium.
A platinum-loopful of cells of fresh Propionibacterium acnes JCM6425 strain were inoculated in a test tube containing 5 ml of GAM broth medium (produced by Nissui K.K.) previously sterilized and deaerated. Thereto, APZ, AP+Zn and AG+Zn prepared as in Examples 1 to 3, APM and AG, each diluted in a common ratio of 2 to have a concentration of from 10 to 0.078 mg/ml, were added and cultured at 35° C. for 72 hours under anaerobic conditions. After completion of cultivation, the test tube was thoroughly shaken and the turbidity of the culture solution was measured. The minimum concentration when the turbidity was not increased by cultivation was used as the minimum inhibitory concentration (MIC).

[3] = system: hyaluronidase derived from Propionibacterium; test: Hyaluronidase inhibitory activity, partially purified enzyme, hyaluronic acid substrate; assay type: biochemical, Propionibacterium acnes JCM6425; conditions: for Inhibitory Ratio: P. acnes hyaluronidase, pH 7.0, 30° C., 15 minutes
Protocol: The activity of inhibiting hyaluronidase derived from Propionibacterium of the ascorbic acid-2-phosphate zinc salt, the ascorbic acid-2-phosphate and zinc salt mixture and the ascorbic acid-2-glucoside and zinc salt mixture of the present invention was examined.
(§1) The culture solution of Propionibacterium acnes JCM6425 cultured in the same manner as in Example 7 was dialyzed with 50 mM phosphate buffer, then concentrated to about 1/10 the amount using a membrane having a fraction molecular weight of 10,000 and used as the hyaluronidase partially purified product.
To 1.8 ml of 50 mM HEPES buffer (pH: 7.0) separately placed in a small test tube, 0.2 ml of the […] partially purified product was added and thereto, APZ, AP+Zn and AG+Zn prepared in Examples 1 to 3, APM and AG were added each to have concentrations of 0.1 mg/ml, 1 mg/ml and 10 mg/ml. The reaction was started by addition of a substrate hyaluronic acid at a final concentration of 0.8 mg/ml. The reaction was performed at 30° C. for 15 minutes under shaking. After the shaking, 0.1 ml of 0.2M potassium tetraborate was added, kept at 100° C. for 3 minutes and cooled. To this solution, 3 ml of a paradimethylaminobenzaldehyde reagent (obtained by mixing and dissolving 10 g of dimethylaminobenzaldehyde, 12.5 ml of 10N hydrochloric acid and 77.5 ml of glacial acetic acid) 10 times diluted with glacial acetic acid was added and left standing at 37° C. for 20 minutes to allow reaction with N-acetylglucosamine liberated to proceed and thereby cause coloring. The absorbance at a wavelength of 544 nm was measured and the difference from the absorbance of a control test tube where the substrate was not present was used as the activity. The ratio between activity when a sample was present and activity when the sample was not present was calculated as the inhibitory ratio of each sample and the values obtained were compared.

[4] = system: lipase derived from Propionibacterium; test: Lipase inhibitory activity (2), partially purified lipase, paranitrophenyl palmitate substrate; assay type: biochemical, Propionibacterium acnes JCM6425; conditions: for Inhibitory Ratio: P. acnes lipase, pH 6.5, 30° C., 120 minutes
Protocol: The activity of inhibiting lipase derived from Propionibacterium of the ascorbic acid-2-phosphate zinc salt, the ascorbic acid-2-phosphate and zinc salt mixture and the ascorbic acid-2-glucoside and zinc salt mixture of the present invention was examined.
as §1, with “an ultrafiltration film” for “a membrane”, “lipase” for “hyaluronidase”
To 1.9 ml of 50 mM HEPES buffer (pH: 6.5) separately placed in a small test tube, 0.1 ml of the lipase partially purified product was added and thereto, APZ, AP+Zn and AG+Zn prepared in Examples 1 to 3, APM and AG were added each to have concentrations of 0.1 mg/ml, 1 mg/ml and 10 mg/ml. The reaction was started by addition of a substrate paranitrophenyl palmitate at a final concentration of 0.14 mg/ml. The reaction was performed at 30° C. for 120 minutes under shaking. After completion of the reaction, the absorbance at a wavelength of 405 nm was measured and the difference from the absorbance of a control test tube where the substrate was not present was used as the activity. The ratio between activity when a sample was present and activity when the sample was not present was calculated as the inhibitory ratio of each sample and the values obtained were compared.

[5] = system: Staphylococcus aureus IFO12732 strain; test: Minimum inhibitory concentration (MIC) against Staphylococcus, turbidity of culture; assay type: cell-based
Protocol: A platinum-loopful of cells of fresh Staphylococcus aureus IFO12732 strain were inoculated in a test tube containing 5 ml of nutrient broth medium (produced by Difco) previously sterilized and deaerated. […] After the completion of cultivation, the turbidity of the culture solution was measured. The minimum concentration when turbidity was not increased by the cultivation was used as the minimum inhibitory concentration (MIC).

O=C1OC(C(O)CO)C2=C1OP(=O)([O][Zn][O]P1(=O)[O][Zn][O]C3=C(O1)C(=O)OC3C(O)CO)[O][Zn][O]2 (centres unmarked) was tested, and the “lipase inhibitory activity (in words)” value ([1]; Pseudomonas-derived lipase, summary of Table 3) was “verified to have lipase inhibitory activity”, the “Inhibitory Ratio” value ([1]; sample 1 mg/ml) was 76% and the “Inhibitory Ratio” value ([1]; sample 10 mg/ml) was 98%. The MIC ([2]; Cutibacterium acnes, JCM6425, 72 h) was 313 µg/mL, the “antibacterial activity against Propionibacterium (in words)” value ([2]; summary of Table 1) was “verified to have antibacterial activity” and the “hyaluronidase inhibitory activity (in words)” value ([3]; Propionibacterium-derived hyaluronidase, summary of Table 5) was “verified to have strong hyaluronidase inhibitory activity”. The “Inhibitory Ratio” value ([3]; sample 0.1 mg/ml) was 80%, the “Inhibitory Ratio” value ([3]; sample 1 mg/ml) was 98% and the “Inhibitory Ratio” value ([3]; sample 10 mg/ml) was 100%. For the same molecule, the “lipase inhibitory activity (in words)” value ([4]; Propionibacterium-derived lipase, summary of Table 4) was “verified to have strong lipase inhibitory activity”, the “Inhibitory Ratio” value ([4]; sample 0.1 mg/ml) was 93% and the “Inhibitory Ratio” value ([4]; sample 1 mg/ml) was 100%. For the same molecule, the “Inhibitory Ratio” value ([4]; sample 10 mg/ml) was 100%, the MIC ([5]; Staphylococcus aureus, IFO12732, 48 h) was 625 µg/mL and the “antibacterial action against Staphylococcus (in words)” value ([5]; summary of Table 2) was “verified to have antibacterial action”.

O=C1O[C@H]([C@@H](O)CO)C(O)=C1O[C@H]1O[C@H](CO)[C@@H](O)[C@H](O)[C@H]1O [AG, L-ascorbic acid-2-O-glucoside] was tested, and the “Inhibitory Ratio” value ([1]; sample 1 mg/ml) was 0%, the “Inhibitory Ratio” value ([1]; sample 10 mg/ml) was 0% and the MIC ([2]; Propionibacterium acnes JCM6425, GAM broth, 35° C., 72 hours, anaerobic) was >10000 µg/mL. The “Inhibitory Ratio” value ([3]; sample 0.1 mg/ml) was 10%, the “Inhibitory Ratio” value ([3]; sample 1 mg/ml) was 13% and the “Inhibitory Ratio” value ([3]; sample 10 mg/ml) was 22%. For the same molecule, the “Inhibitory Ratio” value ([4]; sample 0.1 mg/ml) was 0%, the “Inhibitory Ratio” value ([4]; sample 1 mg/ml) was 0% and the “Inhibitory Ratio” value ([4]; sample 10 mg/ml) was 0%. It also gave an MIC ([5]; Staphylococcus aureus IFO12732, nutrient broth, 35° C., 48 hours, shaking) of 10000 µg/mL (≈ 29.6 mM).

With O=C1O[C@H]([C@@H](O)CO)C(O)=C1OP(=O)([O-])[O-].[Mg+2] [APM, L-ascorbic acid-2-phosphate magnesium salt] the “Inhibitory Ratio” value ([1]; sample 1 mg/ml) was 0%, the “Inhibitory Ratio” value ([1]; sample 10 mg/ml) was 0% and the MIC ([2]; Cutibacterium acnes, Propionibacterium acnes JCM6425, GAM broth, 35° C., 72 hours, anaerobic, read-out: MIC) was > 10000 µg/mL. For the same molecule, the “Inhibitory Ratio” value ([3]; sample 0.1 mg/ml) was 22%, the “Inhibitory Ratio” value ([3]; sample 1 mg/ml) was 32% and the “Inhibitory Ratio” value ([3]; sample 10 mg/ml) was 34%. For the same molecule, the “Inhibitory Ratio” value ([4]; sample 0.1 mg/ml) was 0%, the “Inhibitory Ratio” value ([4]; sample 1 mg/ml) was 0% and the “Inhibitory Ratio” value ([4]; sample 10 mg/ml) was 0%. It also gave an MIC ([5]; Staphylococcus aureus IFO12732, nutrient broth, 35° C., 48 hours, shaking, read-out: MIC) of 10000 µg/mL.
